Each molecule was assayed against T1, BRD4 (BD1) (Homo sapiens, UniProt O60885) (assay: Binding assay BRD4/acetylated peptide H4 (TR-FRET protein-protein interaction assay)).
T1 construct: with relatively long constructs also being possible, preferably amino acids 44-168; made in house; host or cells: E. coli
Source text: Binding Assay BRD4/Acetylated Peptide H4 (“PRO”)
To assess the BRD4 binding of the substances described in the present application, their ability to inhibit the interaction between BRD4 (BD1) and acetylated histone H4 in a dose-dependent manner was quantified (Filippakopoulos et al., Cell, 2012, 149: 214-231).
For this purpose, use was made of a time-resolved fluorescence resonance energy transfer (TR-FRET) assay which measured binding between N-terminally His6-tagged BRD4 (BD1) (amino acids 67-152, with relatively long constructs also being possible, preferably amino acids 44-168) and a synthetic acetylated histone H4 (Ac—H4) peptide having the sequence GRGK(Ac)GGK(Ac)GLGK(Ac)GGAK(Ac)RHGSGSK-biotin. The recombinant BRD4 protein-produced according to Filippakopoulos et al., Cell, 2012, 149: 214-231—was expressed in E. coli and purified by (Ni-NTA) affinity and (Sephadex G-75) size exclusion chromatography. The Ac—H4 peptide is commercially available, for example from Biosyntan (Berlin, Germany). In a typical assay, 11 different concentrations of each substance (0.1 nM, 0.33 nM, 1.1 nM, 3.8 nM, 13 nM, 44 nM, 0.15 μM, 0.51 μM, 1.7 μM, 5.9 μM and 20 μM) were measured in duplicate on the same microtitre plate. To this end, 100-fold concentrated solutions in DMSO were prepared by serial dilution (1:3.4) of a 2 mM stock solution in a clear 384-well microtitre platte (Greiner Bio-One, Frickenhausen, Germany) 50 nl of these were transferred into a black test plate (Greiner Bio-One, Frickenhausen, Germany). The test was started by addition of 2 μl of a 2.5-fold concentrated BRD4 solution (final concentration usually 10 nM in the […] of the reaction volume) in aqueous assay buffer [50 mM HEPES pH 7.5. 50 mM sodium chloride (NaCl), 0.25 mM CHAPS and 0.05% serum albumin (BSA)] to the substances in the test plate. This was followed by a 10-minute incubation step at 22° C. to pre-equilibrate putative complexes between BRD4 and the substances.
The mixture was then incubated in the dark for one hour at 22° C. and then for at least 3 hours and at most overnight at 4° C. Formation of BRD4/Ac—H4 complexes was determined by measuring the resonance energy transfer from the streptavidin-Eu cryptate to the anti-6His-XL665 antibody in the reaction. To this end, the fluorescence emission was measured at 620 nm and 665 nm after excitation at 330-350 nm in a TR-FRET measuring device, for example a Rubystar or Pherastar (both from BMG Lab Technologies, Offenburg, Germany) or a Viewlux (Perkin-Elmer). The ratio of the emission at 665 nm and at […] was used as an indicator for the amount of BRD4/Ac—H4 complexes formed.
The data obtained (ratios) were normalized, with 0% inhibition corresponding to the mean of the measured values of a set of controls (usually 32 data points) comprising all reagents. Here, 50 nl of DMSO (100%) were used instead of test substances. An inhibition of 100% corresponded to the mean of the measured values of a set of controls (usually 32 data points) comprising all reagents except for BRD4. The IC50 was determined by regression analysis based on a 4-parameter equation (minimum, maximum, IC50, Hill; Y=Max+(Min−Max)/(1+(X/IC 50)^Hill)).

Q: How did the IC50 turn out when `CNC(=O)N1N=C(c2ccc(Cl)cc2)c2ccc(N3CCOCC3)cc2CC1C` (racemic) [Example 233, (±)-1-(4-chlorophenyl)-N,4-dimethyl-7-(morpholin-4-yl)-4,5-dihydro-3H-2,3-benzodiazepine-3-carboxamide] was run?
A: 3450 nM

Q: `CNC(=O)N1N=C(c2ccc(Cl)cc2)c2ccc(N3CCCC3)cc2CC1C` (racemic) [Example 234, (±)-1-(4-chlorophenyl)-N,4-dimethyl-7-(pyrrolidin-1-yl)-4,5-dihydro-3H-2,3-benzodiazepine-3-carboxamide] was tested. Which IC50 did it give?
A: 3830 nM

Q: `CNC(=O)N1N=C(c2ccc(Cl)cc2)c2ccc(N3CCS(=O)(=O)CC3)cc2CC1C` (racemic) [Example 235, (±)-1-(4-chlorophenyl)-7-(1,1-dioxidothiomorpholin-4-yl)-N,4-dimethyl-4,5-dihydro-3H-2,3-benzodiazepine-3-carboxamide] was tested. Which IC50 did it give?
A: 5020 nM

Q: `CNC(=O)N1N=C(c2ccc(Cl)cc2)c2ccc(N3CCN(C)CC3)cc2CC1C` (racemic) [Example 236, (±)-1-(4-chlorophenyl)-N,4-dimethyl-7-(4-methylpiperazin-1-yl)-4,5-dihydro-3H-2,3-benzodiazepine-3-carboxamide] was tested. Which IC50 did it give?
A: 2200 nM

Q: How did the IC50 turn out when `CNC(=O)N1N=C(c2ccc(N3CCN(C)CC3)cc2)c2ccc(N3CCN(C)CC3)cc2CC1C` (racemic) [Example 237, (±)-N,4-dimethyl-7-(4-methylpiperazin-1-yl)-1-[4-(4-methylpiperazin-1-yl)phenyl]-4,5-dihydro-3H-2,3-benzodiazepine-3-carboxamide] was run?
A: 1070 nM

Q: With `CNC(=O)N1N=C(c2ccc(N3CCN(C)C(=O)C3)cc2)c2ccc(N3CCN(C)C(=O)C3)cc2CC1C` (racemic) [Example 238, (±)-N,4-dimethyl-7-(4-methyl-3-oxopiperazin-1-yl)-1-[4-(4-methyl-3-oxopiperazin-1-yl)phenyl]-4,5-dihydro-3H-2,3-benzodiazepine-3-carboxamide] as the molecule, how does the IC50 read?
A: 130 nM

Q: `CNC(=O)N1N=C(c2ccc(Cl)cc2)c2ccc(-c3ccc(F)cc3)cc2CC1C` (racemic) [Example 239, (±)-1-(4-chlorophenyl)-7-(4-fluorophenyl)-N,4-dimethyl-4,5-dihydro-3H-2,3-benzodiazepine-3-carboxamide] was tested. Which IC50 did it give?
A: 11400 nM

Q: How did the IC50 turn out when `CNC(=O)N1N=C(c2ccc(Cl)cc2)c2ccc(-c3ccncc3)cc2CC1C` (racemic) [Example 240, (±)-1-(4-chlorophenyl)-N,4-dimethyl-7-(pyridin-4-yl)-4,5-dihydro-3H-2,3-benzodiazepine-3-carboxamide] was run?
A: 4500 nM

Q: For `CNC(=O)N1N=C(c2ccc(Cl)cc2)c2ccc(-c3ccc(O)nc3)cc2CC1C` (racemic) [Example 241, (±)-1-(4-chlorophenyl)-7-(6-hydroxypyridin-3-yl)-N,4-dimethyl-4,5-dihydro-3H-2,3-benzodiazepine-3-carboxamide], which IC50 is on record?
A: 2560 nM

Q: How did the IC50 turn out when `CNC(=O)N1N=C(c2ccc(Cl)cc2)c2ccc(-c3c(C)noc3C)cc2CC1C` (racemic) [Example 242, (±)-1-(4-chlorophenyl)-7-(3,5-dimethyl-1,2-oxazol-4-yl)-N,4-dimethyl-4,5-dihydro-3H-2,3-benzodiazepine-3-carboxamide] was run?
A: 2690 nM

Q: `CNC(=O)N1N=C(c2ccc(N3CCCS3(=O)=O)cc2)c2cc(OC)c(OC)cc2CC1C` (racemic) [Example 244, (±)-1-[4-(1,1-Dioxido-1,2-thiazolidin-2-yl)phenyl]-7,8-dimethoxy-N,4-dimethyl-4,5-dihydro-3H-2,3-benzodiazepine-3-carboxamide] was tested. Which IC50 did it give?
A: 30 nM

Q: How did the IC50 turn out when `CNC(=O)N1N=C(c2ccc(-c3c(C)nn(C)c3C)cc2)c2cc(OC(F)(F)F)ccc2CC1C` (racemic) [Example 249, (±)-N,4-dimethyl-8-(trifluoromethoxy)-1-[4-(1,3,5-trimethyl-1H-pyrazol-4-yl)phenyl]-4,5-dihydro-3H-2,3-benzodiazepine-3-carboxamide] was run?
A: 30 nM

Q: Which IC50 does the source give for `CNC(=O)N1N=C(c2cc(N3CCN(C)CC3)c(Br)cc2Br)c2cc(OC)c(OC)cc2CC1C` (racemic) [Example 252, (±)-1-[2,4-Dibromo-5-(4-methylpiperazin-1-yl)phenyl]-7,8-dimethoxy-N,4-dimethyl-4,5-dihydro-3H-2,3-benzodiazepine-3-carboxamide] here?
A: 5290 nM

Q: With `CCC(=O)N1N=C(c2ccc(N3CCN(C)CC3)cc2)c2cc(OC)c(OC)cc2CC1C` (racemic) [Example 255, (±)-7,8-dimethoxy-4-methyl-1-[4-(4-methylpiperazin-1-yl)phenyl]-3-(1-oxopropyl)-4,5-dihydro-3H-2,3-benzodiazepine] as the molecule, how does the IC50 read?
A: 240 nM

Q: `COc1cc2c(cc1OC)C(c1ccc(N3CCN(C)CC3)cc1)=NN(C(=O)C1CC1)C(C)C2` (racemic) [Example 256, (±)-3-(cyclopropylcarbonyl)-7,8-dimethoxy-4-methyl-1-[4-(4-methylpiperazin-1-yl)phenyl]-4,5-dihydro-3H-2,3-benzodiazepine] was tested. Which IC50 did it give?
A: 610 nM

Q: With `COc1cc2c(cc1OC)C(c1ccc(N3CCN(C)CC3)cc1)=NN(C(=O)NC1CC1)C(C)C2` (racemic) [Example 257] as the molecule, how does the IC50 read?
A: 2000 nM

Q: How did the IC50 turn out when `CNC(=S)N1N=C(c2ccc(N3CCN(C)CC3)cc2)c2cc(OC)c(OC)cc2CC1C` (racemic) [Example 258, (±)-7,8-Dimethoxy-N,4-dimethyl-1-[4-(4-methylpiperazin-1-yl)phenyl]-4,5-dihydro-3H-2,3-benzodiazepine-3-carbothioamide] was run?
A: 190 nM

Q: With `COC(=O)N1N=C(c2ccc(N3CCN(C)CC3)cc2)c2cc(OC)c(OC)cc2CC1C` (racemic) [Example 259, Methyl(±)-7,8-dimethoxy-4-methyl-1-[4-(4-methylpiperazin-1-yl)phenyl]-4,5-dihydro-3H-2,3-benzodiazepine-3-carboxylate] as the molecule, how does the IC50 read?
A: 520 nM

Q: `CCOC(=O)N1N=C(c2ccc(N3CCN(C)CC3)cc2)c2cc(OC)c(OC)cc2CC1C` (racemic) [Example 260, Ethyl (±)-7,8-dimethoxy-4-methyl-1-[4-(4-methylpiperazin-1-yl)phenyl]-4,5-dihydro-3H-2,3-benzodiazepine-3-carboxylate] was tested. Which IC50 did it give?
A: 6490 nM

Q: How did the IC50 turn out when `CCNC(=O)N1N=C(c2ccc(N3CCN(C)CC3)cc2)c2cc(OC)c(OC)cc2CC1C` (racemic) [Example 261, (±)-N-Ethyl-7,8-dimethoxy-4-methyl-1-[4-(4-methylpiperazin-1-yl)phenyl]-4,5-dihydro-3H-2,3-benzodiazepine-3-carboxamide] was run?
A: 1490 nM

Q: `COc1cc2c(cc1OC)C(c1ccc(N3CCN(C)CC3)cc1)=NN(C(C)=O)[C@@H](C)C2` (single isomer, unassigned) [Example 245.1] was tested. Which IC50 did it give?
A: 390 nM

Q: For `CNC(=O)N1N=C(c2ccc(-c3cccnc3Cl)cc2)c2cc(OC)c(OC)cc2C[C@H]1C` [Example 4.1, (R)-1-[4-(2-chloropyridin-3-yl)phenyl]-7,8-dimethoxy-N,4-dimethyl-4,5-dihydro-3H-2,3-benzodiazepine-3-carboxamide], which IC50 is on record?
A: 780 nM

Q: `CNC(=O)N1N=C(c2ccc(-c3cccnc3Cl)cc2)c2cc(OC)c(OC)cc2C[C@@H]1C` [Example 4.2, (S)-1-[4-(2-chloropyridin-3-yl)phenyl]-7,8-dimethoxy-N,4-dimethyl-4,5-dihydro-3H-2,3-benzodiazepine-3-carboxamide] was tested. Which IC50 did it give?
A: 60 nM

Q: For `CNC(=O)N1N=C(c2ccc(-c3ccc(C(F)(F)F)nc3)cc2)c2cc(OC)c(OC)cc2C[C@H]1C` [Example 50.2, (4R)-7,8-dimethoxy-N,4-dimethyl-1-{4-[6-(trifluoromethyl)pyridin-3-yl]phenyl}-4,5-dihydro-3H-2,3-benzodiazepine-3-carboxamide], which IC50 is on record?
A: 18900 nM

Q: Which IC50 does the source give for `CNC(=O)N1N=C(c2ccc(N3CCC(O)CC3)cc2)c2cc(OC)c(OC)cc2C[C@H]1C` [Example 130.2, (4R)-1-[4-(4-Hydroxypiperidin-1-yl)phenyl]-7,8-dimethoxy-N,4-dimethyl-4,5-dihydro-3H-2,3-benzodiazepine-3-carboxamide] here?
A: 9870 nM

From US9890147B2 (BAYER PHARMA AKTIENGESELLSCHAFT, priority 2012, dated 2018)
